The AC50 is the midpoint of the concentration-response curve, whichever way the signal moves.

Consider 6 compounds from ChEMBL document CHEMBL5291721, “A preclinical secondary pharmacology resource illuminates target-adverse drug reaction associations of marketed drugs” (Nat Commun, 2023).

Assay [1] deals with Rod cGMP-specific 3',5'-cyclic phosphodiesterase subunit alpha (Homo sapiens, UniProt P16499). The assay is classed as functional.
Assay [2] addresses 5-hydroxytryptamine receptor 5A (Homo sapiens, UniProt P47898).
Assay [3] addresses T1, Prostaglandin G/H synthase 1 (Rattus norvegicus, UniProt Q63921).
T1 sequence (Q63921 whole entry): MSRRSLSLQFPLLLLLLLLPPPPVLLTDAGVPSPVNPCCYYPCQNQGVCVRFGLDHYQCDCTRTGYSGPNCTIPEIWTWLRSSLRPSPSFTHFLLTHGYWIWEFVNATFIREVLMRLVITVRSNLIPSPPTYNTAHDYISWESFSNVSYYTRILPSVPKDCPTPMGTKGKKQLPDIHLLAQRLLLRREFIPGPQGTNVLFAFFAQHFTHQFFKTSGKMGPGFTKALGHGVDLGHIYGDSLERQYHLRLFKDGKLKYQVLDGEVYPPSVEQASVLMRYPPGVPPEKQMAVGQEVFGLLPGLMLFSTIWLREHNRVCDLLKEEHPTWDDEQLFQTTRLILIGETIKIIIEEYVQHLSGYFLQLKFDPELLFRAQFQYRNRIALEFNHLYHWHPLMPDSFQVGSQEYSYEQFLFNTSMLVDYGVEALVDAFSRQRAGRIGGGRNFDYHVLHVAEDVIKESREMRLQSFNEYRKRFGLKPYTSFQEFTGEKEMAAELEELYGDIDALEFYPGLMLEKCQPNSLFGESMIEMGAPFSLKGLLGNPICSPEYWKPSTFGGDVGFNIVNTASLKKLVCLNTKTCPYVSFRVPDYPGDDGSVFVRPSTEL
It counts as functional.

The target in assay [4] is T2, Peroxisome proliferator-activated receptor alpha (Homo sapiens, UniProt Q07869).
T2 sequence (Q07869 whole entry): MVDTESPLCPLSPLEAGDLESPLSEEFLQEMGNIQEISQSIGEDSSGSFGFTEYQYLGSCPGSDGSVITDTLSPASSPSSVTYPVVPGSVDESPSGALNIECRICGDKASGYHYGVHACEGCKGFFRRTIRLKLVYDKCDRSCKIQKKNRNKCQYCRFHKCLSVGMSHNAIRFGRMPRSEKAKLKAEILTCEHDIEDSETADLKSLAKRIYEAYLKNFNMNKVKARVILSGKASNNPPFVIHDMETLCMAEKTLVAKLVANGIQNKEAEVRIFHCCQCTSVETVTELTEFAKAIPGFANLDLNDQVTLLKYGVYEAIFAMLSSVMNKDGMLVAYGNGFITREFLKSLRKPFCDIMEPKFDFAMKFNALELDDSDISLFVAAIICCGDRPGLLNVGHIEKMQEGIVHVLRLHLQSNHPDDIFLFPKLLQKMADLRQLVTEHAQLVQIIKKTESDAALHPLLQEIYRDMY
It counts as functional.

In assay [5] the target is T3, Retinoic acid receptor gamma (Homo sapiens, UniProt P13631).
T3 sequence (P13631 whole entry): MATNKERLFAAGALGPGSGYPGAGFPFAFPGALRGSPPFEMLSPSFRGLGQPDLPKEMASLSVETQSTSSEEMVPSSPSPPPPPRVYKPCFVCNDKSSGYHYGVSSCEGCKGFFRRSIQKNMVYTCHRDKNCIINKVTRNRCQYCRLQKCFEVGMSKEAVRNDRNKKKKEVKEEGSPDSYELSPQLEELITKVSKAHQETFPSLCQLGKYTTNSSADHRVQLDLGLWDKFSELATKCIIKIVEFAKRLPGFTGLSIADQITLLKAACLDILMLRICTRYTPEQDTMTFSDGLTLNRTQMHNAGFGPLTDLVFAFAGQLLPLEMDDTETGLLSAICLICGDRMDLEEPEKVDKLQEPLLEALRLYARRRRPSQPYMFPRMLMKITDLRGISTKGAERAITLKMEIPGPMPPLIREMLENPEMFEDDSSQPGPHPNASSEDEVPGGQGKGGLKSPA
It counts as functional, cell-based.

The target of assay [6] is T4, Oxysterols receptor LXR-alpha (Homo sapiens, UniProt Q13133).
T4 sequence (Q13133 whole entry): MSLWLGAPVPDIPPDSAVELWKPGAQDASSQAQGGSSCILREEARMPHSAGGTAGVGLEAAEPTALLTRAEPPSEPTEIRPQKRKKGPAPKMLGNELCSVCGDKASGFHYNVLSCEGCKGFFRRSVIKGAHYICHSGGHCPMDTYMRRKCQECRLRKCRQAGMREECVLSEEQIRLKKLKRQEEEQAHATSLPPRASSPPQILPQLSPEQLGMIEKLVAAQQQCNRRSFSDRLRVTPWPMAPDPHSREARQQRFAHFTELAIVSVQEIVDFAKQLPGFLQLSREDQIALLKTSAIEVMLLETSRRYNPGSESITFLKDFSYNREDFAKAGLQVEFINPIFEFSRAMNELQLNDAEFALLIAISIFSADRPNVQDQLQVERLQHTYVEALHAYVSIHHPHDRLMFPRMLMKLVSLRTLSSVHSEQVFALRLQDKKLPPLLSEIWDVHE
The assay is classed as functional.

Another assay deals with T5, Bile acid receptor (Homo sapiens, UniProt Q96RI1).
T5 sequence (Q96RI1 whole entry): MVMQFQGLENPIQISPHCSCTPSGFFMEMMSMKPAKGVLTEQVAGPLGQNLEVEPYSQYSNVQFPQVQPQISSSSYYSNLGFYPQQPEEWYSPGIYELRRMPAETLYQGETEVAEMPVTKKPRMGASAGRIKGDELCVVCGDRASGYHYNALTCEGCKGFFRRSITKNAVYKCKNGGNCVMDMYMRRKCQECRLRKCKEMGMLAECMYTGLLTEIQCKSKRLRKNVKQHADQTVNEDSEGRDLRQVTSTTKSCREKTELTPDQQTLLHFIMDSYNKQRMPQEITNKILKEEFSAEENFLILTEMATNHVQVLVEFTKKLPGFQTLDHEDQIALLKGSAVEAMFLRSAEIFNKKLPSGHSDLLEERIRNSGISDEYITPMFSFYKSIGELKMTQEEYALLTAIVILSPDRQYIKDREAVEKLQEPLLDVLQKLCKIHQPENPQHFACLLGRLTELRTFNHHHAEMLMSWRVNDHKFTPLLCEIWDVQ
The assay is classed as functional.
Further: assay procedure not described here.

Chain of 5-hydroxytryptamine receptor 5A (P47898 whole entry): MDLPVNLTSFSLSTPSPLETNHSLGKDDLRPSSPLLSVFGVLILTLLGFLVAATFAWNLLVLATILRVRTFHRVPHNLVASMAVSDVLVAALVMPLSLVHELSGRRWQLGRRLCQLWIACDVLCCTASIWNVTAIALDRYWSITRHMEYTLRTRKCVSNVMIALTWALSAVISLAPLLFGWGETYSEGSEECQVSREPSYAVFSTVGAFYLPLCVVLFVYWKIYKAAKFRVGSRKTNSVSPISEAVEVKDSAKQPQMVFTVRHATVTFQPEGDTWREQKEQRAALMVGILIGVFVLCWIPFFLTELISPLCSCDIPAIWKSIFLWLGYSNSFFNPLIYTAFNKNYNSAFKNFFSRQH
Chain of Rod cGMP-specific 3',5'-cyclic phosphodiesterase subunit alpha (P16499 whole entry): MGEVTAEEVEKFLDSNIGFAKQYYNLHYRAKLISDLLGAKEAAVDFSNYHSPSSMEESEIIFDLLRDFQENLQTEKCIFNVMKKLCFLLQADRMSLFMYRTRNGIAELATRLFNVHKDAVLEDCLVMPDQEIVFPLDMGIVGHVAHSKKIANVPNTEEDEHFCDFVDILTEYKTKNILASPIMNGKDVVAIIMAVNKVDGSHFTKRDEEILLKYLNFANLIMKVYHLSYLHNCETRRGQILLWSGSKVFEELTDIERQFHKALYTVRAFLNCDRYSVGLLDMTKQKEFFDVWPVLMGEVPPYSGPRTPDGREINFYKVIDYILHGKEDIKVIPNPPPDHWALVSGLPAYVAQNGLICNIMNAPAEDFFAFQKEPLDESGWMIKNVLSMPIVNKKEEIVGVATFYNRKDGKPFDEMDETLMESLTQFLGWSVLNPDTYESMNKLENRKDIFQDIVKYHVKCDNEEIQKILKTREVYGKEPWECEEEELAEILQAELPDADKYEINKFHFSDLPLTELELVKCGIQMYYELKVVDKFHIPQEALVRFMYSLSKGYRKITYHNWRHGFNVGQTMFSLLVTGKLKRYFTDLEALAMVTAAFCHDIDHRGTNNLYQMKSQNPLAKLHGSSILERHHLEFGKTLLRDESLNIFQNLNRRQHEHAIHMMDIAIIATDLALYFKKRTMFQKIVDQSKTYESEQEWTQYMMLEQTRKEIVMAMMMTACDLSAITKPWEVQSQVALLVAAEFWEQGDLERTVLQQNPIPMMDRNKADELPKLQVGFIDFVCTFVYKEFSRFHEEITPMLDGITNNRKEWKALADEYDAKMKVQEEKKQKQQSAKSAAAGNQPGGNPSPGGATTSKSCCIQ

Take `CCOC(=O)[C@H](CCc1ccccc1)N[C@@H](C)C(=O)N1Cc2ccccc2C[C@H]1C(=O)O`: the AC50 in assay [1] and in assay [2] was more than 10 µM each time.
Compound `CN(C)CCC=C1c2ccccc2CCc2ccccc21` [AMITRIPTYLINE] registered an AC50 in assay [3] of more than 30 µM.
Same read-out and setting: as for `CCN(CC)CCn1c(=O)c(Cc2ccc(OC)cc2)nc2ccccc21` [CAROVERINE], the figure is 15.9 µM.
For the compound `CC(C)/N=c1\cc2n(-c3ccc(Cl)cc3)c3ccccc3nc-2cc1Nc1ccc(Cl)cc1` [CLOFAZIMINE], the AC50 in assay [4] was more than 30 µM; in assay [5], more than 30 µM; in assay [6], more than 30 µM; at Bile acid receptor, 16 µM.
As to `OCCOCCN1CCN(C(c2ccccc2)c2ccc(Cl)cc2)CC1` (stereo not given) [HYDROXYZINE], in assay [2], the concentration at half-maximal activity (AC50) came out at 0.28 µM.
In assay [4], `CC(=O)SCC(Cc1ccccc1)C(=O)NCC(=O)OCc1ccccc1` (stereo not given) [RACECADOTRIL] registered a concentration at half-maximal activity (AC50) of more than 30 µM.
